These results are taken from patent US8173693B2, “Benzenesulfonamide derivatives and pharmaceutical composition thereof” (Purzer Pharmaceutical Co., Ltd., priority 2010, dated 2012).

One data set deals with tumor cells. Description: Preliminary cytotoxicity assays (MTT, SRB), tumor cell panel. Format: cell-based. To be noted: comparison over Tables 1-4. On the procedure: (§1) Human Bladder Cancer TSGH cells, Human hepatoblastoma HepG2 cells, Human colorectal adenocarcinoma HT-29 cells, human nasopharyngeal carcinoma KB cells, Human gastric adenocarcinoma AGS cells, Human breast carcinoma MCF-7 cells, lung carcinoma A549 cells, and Human prostate carcinoma PC-3 cells were used in the preliminary cytotoxicity assays of the benzenesulfonamide derivatives of the present invention, and the inhibition activity against the tumor cells was evaluated.
(§2) All cell lines were maintained in RPMI 1640 supplied with 10% fetal bovine serum and maintained in a humidified chamber at 37° C. containing 5% CO2. Then, all cell lines were treated with compounds for 72 hr and subsequently incubated with 0.4 mg/mL of MTT at 37° C. for 2 hr. The medium was removed, and DMSO was added to dissolve MTT precipitate. Cell proliferation was determined by measuring the optical density at 540 nm using a Thermomax microplate reader (Molecular Devices, Sunnyvale, Calif.), and the IC50 values of the benzenesulfonamide derivatives of the present invention were calculated.
All cell lines were maintained in RPMI 1640 supplied with 10% fetal bovine serum into 96-well microtiter plates and maintained in a humidified chamber at 37° C. containing 5% CO2. After 24 hr, cell lines in partial wells were fixed in situ with 10% trichloroacetic acid (TCA) to represent a measurement at the time of drug addition (T0). Then, cell lines in other wells were incubated with the benzenesulfonamide derivatives of the present invention for an additional 48 hr, and fixed in situ with 10% TCA to represent a measurement at the time of stopping reaction (Tx). […] Cell proliferation was determined by measuring the optical density at 515 nm using a Thermomax microplate reader (Molecular Devices, Sunnyvale, Calif.). The half-inhibition concention (GI50) of the benzenesulfonamide derivatives of the present invention was obtained from the detected optical density.

The subject of data set [1] is Human Bladder Cancer TSGH cells. Description: MTT assay. Type of data set: cell-based. To be noted: 72 hr. On the procedure:
as §1, §2

Data set [2] concerns Human hepatoblastoma HepG2 cells. Description: MTT assay. Format: cell-based. To be noted: 72 hr, read-out: IC50 HepaG2. On the procedure:
as §1, §2
(In general: Formazan colour is commonly taken as a measure of viable cells.)

Data set [3] concerns human nasopharyngeal carcinoma KB cells. Description: MTT assay. Type of data set: cell-based. To be noted: Homo sapiens, KB; MTT assay, 72 hr. On the procedure: as §1, §2
Data set [4] deals with Human colorectal adenocarcinoma HT-29 cells. Briefly: MTT assay. Type of data set: cell-based. The settings on record: 72 hr. On the procedure: as §1, §2
For data set [5] the following is noted: background statement; cited from earlier work.
The next data set has as its system colon 38 cells. The settings on record: Owa et al., J. Med. Chem. 1999, 42, 3789-3799; read-out: IC50 against colon 38 cells; cited from earlier work.
The test system of data set [6] is P388 murine leukemia cells. To be noted: Owa et al., J. Med. Chem. 1999, 42, 3789-3799; read-out: IC50 against P388 murine leukemia cells; cited from earlier work.
In another data set the test system is KB cells. The settings on record: Owa et al., J. Med. Chem. 1999, 42, 3789-3799; read-out: IC50 against KB cells; cited from earlier work.
Data set [7] deals with 4T1-Luc cells. Description: In vivo evaluation, long-time treatment, mice implanted with 4T1-Luc cells. On the procedure:
GM119 (25 mg/kg) and Taxol (10 mg/kg) were simultaneously applied to a mouse implanted with 4T1-Luc cells for a long time to observe the effect of GM119 on the 4T1-Luc cells.
(§3) A suspension of 4T1-Luc cells in matrigel was injected into the breast adipocyte to obtain mice implanted with luciferase tumor cells. […] When the size of the tumor cells was achieved to 200-500 mm^3, the mice were divided into […], and the number of the mice in each group is ≧5. Then, 0/0, 0/25, 10/23, or 10/0 mg/kg of Taxol/GM119 was abdominal-injected into the mice every two days until death of the mice, wherein GM119 and Taxol were dissolved in cremophor, and the volume of injection to each mouse is 50 μl. The weight and the number of the mice were recorded every day to analyze the change on the weight and the survival time of the mice. After the drugs were applied to the mice, the size of the tumor cells in the mice was evaluated with bioluminescence every two days.

Data set [8] deals with 4T1-Luc cells. Briefly: In vivo evaluation, short-time treatment, mice implanted with 4T1-Luc cells. The settings on record: short-time treatment, GM119 25 mg/kg, Taxol 10 mg/kg. On the procedure:
GM119 (25 mg/kg) was applied to a mouse implanted with 4T1-Luc cells for a short time, and then Taxol (10 mg/kg) was applied thereto to observe the effect of GM119 on the 4T1-Luc cells.
as §3, with “0” for “0/0, 0/25, 10/23,”, “25” for “10/0”, “GM119” for “Taxol/GM119”, “for 5 days,” for “every two days until death of the mice,”, “was” for “and Taxol were”, “μl. Then, 0 or 10 mg/kg of Taxol was abdominal-injected into the mice for every 2 days until death of the mice.” for “μl.”

Several values for one entry are separate records, joined by “and”; a condition that tells them apart may be missing. Equal entries are not always repeated.

What is called IC50 is the concentration that gives 50% inhibition. By melting point is commonly meant the temperature of the solid-liquid transition.

In the case of `O=S(=O)(Nc1cccc2c(/N=N/c3ccccc3)c[nH]c12)c1ccc(Cl)cc1` [Compound 7c, 4-Chloro-N-(3-phenylazo-1H-indol-7-yl)benzenesulfonamide], the melting point was 110 to 111 °C. In addition, the “inhibitory activity against the tumor cells (in words)” value in the data set with tumor cells is “higher than that of the compound 5d”. Also, in [1], the IC50 was determined as 14.2 µM. In data set [2], the IC50 was determined as 28.4 µM. Also, the IC50 in data set [3] stood at 15.3 µM. Also, the IC50 in [4] was determined as 13.8 µM.
In the case of `COc1ccc(S(=O)(=O)Nc2cccnc2Nc2ccc(O)cc2)cc1` [Compound E7010], the “anti-cancer activity in mice” value in data set [5] is listed as “shows great effect”.
In the case of `NS(=O)(=O)c1ccc(S(=O)(=O)Nc2cccc3c(Cl)c[nH]c23)cc1` [Compound E7070], the IC50 in the data set with colon 38 cells is 0.26 µM and 0.3 µM; in data set [6] it was 1.2 µM; in the data set on KB cells, 11.4 µM.
With `CC(=O)O[C@H]1C(=O)[C@@]2(C)[C@H]([C@H](OC(=O)c3ccccc3)[C@]3(O)C[C@H](OC(=O)[C@H](O)[C@@H](NC(=O)c4ccccc4)c4ccccc4)C(C)=C1C3(C)C)[C@]1(OC(C)=O)CO[C@@H]1C[C@@H]2O` [Taxol, reference compound], the “survival of the mice” value with 4T1-Luc cells [7] (long time: Taxol 10 mg/kg and/or GM119 25 mg/kg abdominal-injected every two days until death, FIG. 3) was “the survival of the mice can be increased”. In addition, the “growth of the tumor cells (bioluminescence)” value in the data set with 4T1-Luc cells [7] (long-time treatment) and with 4T1-Luc cells [8] was “the growth of the tumor cells can be inhibited” each time.
